Laboratory results as given in US20220154282A1, “DETECTION MEANS, COMPOSITIONS AND METHODS FOR MODULATING SYNOVIAL SARCOMA CELLS” (The Broad Institute, Inc., priority 2019, published 2022).

System: Aska and SYO1 SyS cell lines
Assay: SS18-SSX knockdown (shSSX vs shCt) with scRNA-Seq readout
Type: cell-based, human
Text: To decouple the intrinsic and extrinsic factor determining the malignant cell states in SyS Applicants first tested whether the core oncogenic and other programs were co-regulated by the genetic fusion driving SyS. Applicants turned to explore the potential regulators of these cellular programs, starting from the genetic driver. To this end, they depleted SS18-SSX in two SyS cell lines (SYO1 and Aska) using shRNA and profiled 12,263 cells with scRNA-Seq. The fusion KD led to massive and highly consistent transcriptional alternation in both cell lines (FIG. 7A, Tables 8, 9). […] Leveraging the single-cell readout Applicants confirmed that the KD impact on the core oncogenic and differentiation programs was decoupled from, and not secondary to, the repression of cellular proliferation (FIG. 7B), such that the impact on the core oncogenic and differentiation programs was observed even when controlling for the cycling status of the cells, and when considering only cycling or non-cycling cells (P<1.54*10^−13, t-test, FIG. 5B, METHODS). Thus, the fusion's impact on cell cycle may be secondary or downstream to its impact on the core oncogenic program. In addition, the fusion KD led to an induction of antigen presentation and cell autonomous immune responses, such as TNF and IFN signaling (P<1*10^−30, mixed-effects, FIG. 8A).
The SyS cell lines Aska and SYO1 were cultured using standard protocols in DMEM medium (Gibco) supplemented with 10-20% fetal bovine serum, 1% Glutamax (Gibco), 1% Sodium Pyruvate (Gibco) and 1% Penicillin-Streptomycin (Gibco) and grown in a humidified incubator at 37° C. with 5% CO2. Cells expressing a pLKO.1 vector with a scrambled shRNA hairpin control (5′-[…] CTTAGG-3′) (SEQ ID NO: 5) or a shSSX hairpin targeting SSX of the SS18-SSX fusion (5′-[…]-3′) (SEQ ID NO: 6) were prepared by lentiviral infection. In brief, lentivirus was prepared by transfection of HEK293T cells with gene delivery vector and the packaging vectors pspax2 and pMD2.G, filtration of media followed by ultracentrifugation, and then resuspension of viral pellet in PBS. Aska and SYO1 cells were infected with lentivirus for 48 hours and then underwent 5 days of selection with puromycin (2 μg/mL) prior to collection for single cell RNA-seq analysis.
The fusion program consists of genes that were differentially expressed in the Aska or SYO1 cells with the SS18-SSX shRNA (shSSX) compared to those with control shRNA (shCt) after 3 or 7 days post-infection. Gene that were previously reported (35, 36) to be bound by the SS18-SSX oncoprotein in at least two SyS cell lines were defined as direct SS18-SSX targets, and were used to stratify the SS18-SSX program to direct and indirect targets.

[1] = SSX shRNA (shSSX) vs control shRNA (shCt), ASKA and SYO1 cells, scRNA-Seq

For “shSSX: shSSX hairpin targeting SSX of the SS18-SSX fusion (5′-CAGTCACTGACAGTTAATAAA-3′), pLKO.1 lentiviral vector”, the mesenchymal differentiation program [1] was “induced”, the “overall expression of the cell cycle program” value [1] was “repressed” and the “overall expression of the core oncogenic program” value [1] was “repressed”. For the same substance, the “immune responses (topmost differentially expressed pathways)” value (shSSX vs shCt, SyS cells stratified by cycling status) was “inducing multiple immune responses”.
